Data taken from ChEMBL document CHEMBL3632478, “Design, synthesis and biological evaluation of imidazopyridine/imidazopyrimidine-benzimidazole conjugates as potential anticancer agents” (Medchemcomm, 2015).

What was measured:
Assay type in all cases: functional, cell-based
B16 = experiment: Antiproliferative activity against mouse B16 cells after 48 hrs by MTT assay; conditions: B16, 48 h
DU-145 = experiment: Antiproliferative activity against human DU145 cells after 48 hrs by MTT assay; conditions: DU-145, 48 h
A549 = experiment: Antiproliferative activity against human A549 cells after 48 hrs by MTT assay; conditions: A549, 48 h
HeLa = experiment: Antiproliferative activity against human HeLa cells after 48 hrs by MTT assay

Row | IC50 (B16) [µM] | IC50 (DU-145) [µM] | IC50 (A549) [µM] | IC50 (HeLa) [µM] | Compound
1 | > 30 | 16 | 18.6 | 19.9 | COc1ccc2nc(-c3c(-c4ccc(F)cc4)nc4ncccn34)[nH]c2c1
2 | 8.91 | 2.34 | 2.19 | 7.58 | Cc1ccc2nc(-c3c(-c4ccccc4)nc4ncccn34)[nH]c2c1
3 | 26.8 | 19.9 | 10.2 | 14 | COc1ccc(-c2nc3ncccn3c2-c2nc3ccc(Cl)cc3[nH]2)cc1
4 | > 30 | > 30 | > 30 | > 30 | Clc1ccc2nc(-c3c(-c4ccccc4)nc4ncccn34)[nH]c2c1
5 | > 30 | 24 | 23.2 | 20.4 | COc1ccc(-c2nc3ccccn3c2-c2nc3ccccc3[nH]2)cc1
6 | 15.6 | 14.4 | 19.2 | 15.3 | Fc1ccc(-c2nc3ncccn3c2-c2nc3ccc(F)cc3[nH]2)cc1
7 | 16.7 | 13.2 | 10.5 | 9.06 | COc1ccc(-c2nc3ncccn3c2-c2nc3ccccc3[nH]2)cc1
8 | 10.2 | 3.71 | 2.12 | 9.33 | COc1ccc2nc(-c3c(-c4ccccc4)nc4ncccn34)[nH]c2c1
9 | 16 | 19.5 | 19.4 | 14.5 | COc1ccc(-c2nc3ccccn3c2-c2nc3ccc(Cl)cc3[nH]2)cc1
10 | 19.4 | 13.8 | 15.1 | 17 | COc1ccc(-c2nc3ncccn3c2-c2nc3ccc(F)cc3[nH]2)cc1
